Values after ≈ are worked out from the molar mass of the structure shown. Where two headings read alike, the source gives them in different places.
Tests used:
[1] = tested on: bacteria; details: versus erythromycin A (U.S. Pat. No. 3,417,077; Rocz. Chem. 46, 2212-2217, 1972); cited from earlier work
[2] = tested on: Bacillus cereus var. mycoides ATCC 11778; test: microbe, parasite or virus in culture; format: cell-based; details: ATCC11778, read-out: Minimum Inhibitory Concentration (MIC)
[3] = tested on: Sarcina lutea ATCC 9341; test: Minimum Inhibitory Concentration (MIC), in vitro; format: cell-based; details: Micrococcus luteus
[4] = tested on: Micrococcus flavus ATCC 10240; test: Minimum Inhibitory Concentration (MIC), in vitro; format: cell-based
[5] = tested on: series of test microorganisms; test: in vitro test on a series of test microorganisms (MIC), overall; format: cell-based; details: test strains of Tables 1 and 2; in comparison with starting 11-aza-10-deoxo-10-dihydro erythromycin A
Protocol: The new compounds were tested in vitro on a series of test microorganisms.

[6] = tested on: Staphylococcus epidermidis ATCC 12228; test: Minimum Inhibitory Concentration (MIC), in vitro; format: cell-based
[7] = tested on: Streptococcus faecalis ATCC 8043; test: Minimum Inhibitory Concentration (MIC), in vitro; format: cell-based; details: Enterococcus faecalis
[8] = tested on: Staphylococcus aureus ATCC 6538-P; test: Minimum Inhibitory Concentration (MIC), in vitro; format: cell-based
[9] = tested on: Bacillus subtilis ATCC 6633; test: Minimum Inhibitory Concentration (MIC), in vitro; format: cell-based
[10] = ATCC9341, Sarcina lutea ATCC 9341, in vitro, read-out: Minimum Inhibitory Concentration (MIC)
[11] = ATCC10240, Micrococcus flavus ATCC 10240, in vitro, read-out: Minimum Inhibitory Concentration (MIC)
[12] = ATCC12228, Staphylococcus epidermidis ATCC 12228, in vitro, read-out: Minimum Inhibitory Concentration (MIC)
[13] = ATCC8043, Streptococcus faecalis ATCC 8043, in vitro, read-out: Minimum Inhibitory Concentration (MIC)
[14] = ATCC6538, Staphylococcus aureus ATCC 6538-P, in vitro, read-out: Minimum Inhibitory Concentration (MIC)
[15] = ATCC6633, Bacillus subtilis ATCC 6633, in vitro, read-out: Minimum Inhibitory Concentration (MIC)

## CC[C@H]1OC(=O)[C@H](C)[C@@H](O[C@H]2C[C@@](C)(OC)[C@@H](O)[C@H](C)O2)[C@H](C)[C@@H](O[C@@H]2O[C@H](C)C[C@H](N(C)C)[C@H]2O)[C@](C)(O)C[C@@H](C)C(=O)[C@H](C)[C@H]2OC(=O)O[C@@]21C [11,12-cyclic carbonate of erythromycin A]
[1]
  antibacterial activity compared with the starting antibiotic: improved antibacterial activity

## CC[C@H]1OC(=O)[C@H](C)[C@@H](O[C@H]2C[C@@](C)(OC)[C@@H](O)[C@H](C)O2)[C@H](C)[C@@H](O[C@@H]2O[C@H](C)C[C@H](N(C)C)[C@H]2O)[C@](C)(O)C[C@@H](C)CN(C)[C@H](C)[C@@H](O)[C@]1(C)O [Example 1, N-methyl-11-aza-10-deoxo-10-dihydro erythromycin A]
[2]
  MIC: 0.5 µg/mL (≈ 0.668 µM)
[3]; [10]
  MIC: 0.05 µg/mL (≈ 0.0668 µM)
[4]; [11]
  MIC: 0.01 µg/mL (≈ 0.0134 µM)
[5]
  antibacterial activity in words: superior effect on some tested microorganisms
[6]; [12]
  MIC: 0.5 µg/mL (≈ 0.668 µM)
[7]; [13]
  MIC: 0.01 µg/mL (≈ 0.0134 µM)
[8]; [14]
  MIC: 0.5 µg/mL (≈ 0.668 µM)
[9]; [15]
  MIC: 0.1 µg/mL (≈ 0.134 µM)

## CC[C@H]1OC(=O)[C@H](C)[C@@H](O[C@H]2C[C@@](C)(OC)[C@@H](O)[C@H](C)O2)[C@H](C)[C@@H](O[C@@H]2O[C@H](C)C[C@H](N(C)C)[C@H]2OC(C)=O)[C@](C)(O)C[C@@H](C)CN(C)[C@H](C)[C@@H](O)[C@]1(C)O [Example 2, 2'-acetyl-N-methyl-11-aza-10-deoxo-10-dihydro erythromycin A]
[2]
  MIC: 0.5 µg/mL (≈ 0.632 µM)
[3]; ATCC9341, read-out: Minimum Inhibitory Concentration (MIC)
  MIC: 0.1 µg/mL (≈ 0.126 µM)
[4]; Micrococcus flavus, ATCC10240, read-out: Minimum Inhibitory Concentration (MIC)
  MIC: 0.5 µg/mL (≈ 0.632 µM)
[6]; Staphylococcus epidermidis, ATCC12228, read-out: Minimum Inhibitory Concentration (MIC)
  MIC: 0.5 µg/mL (≈ 0.632 µM)
[7]; ATCC8043, read-out: Minimum Inhibitory Concentration (MIC)
  MIC: 0.1 µg/mL (≈ 0.126 µM)
[8]; Staphylococcus aureus, ATCC6538, read-out: Minimum Inhibitory Concentration (MIC)
  MIC: 0.5 µg/mL (≈ 0.632 µM)
[9]; Bacillus subtilis, ATCC6633, read-out: Minimum Inhibitory Concentration (MIC)
  MIC: 0.1 µg/mL (≈ 0.126 µM)

## CC[C@H]1OC(=O)[C@H](C)[C@@H](O[C@H]2C[C@@](C)(OC)[C@@H](OC(C)=O)[C@H](C)O2)[C@H](C)[C@@H](O[C@@H]2O[C@H](C)C[C@H](N(C)C)[C@H]2OC(C)=O)[C@](C)(O)C[C@@H](C)CN(C)[C@H](C)[C@@H](O)[C@]1(C)O [Example 3, 2',4"-diacetyl-N-methyl-11-aza-10-deoxo-10-dihydro erythromycin A]
[2]
  MIC: 0.5 µg/mL (≈ 0.6 µM)
[3]; [10]
  MIC: 0.1 µg/mL (≈ 0.12 µM)
[4]; [11]
  MIC: 0.1 µg/mL (≈ 0.12 µM)
[6]; [12]
  MIC: 2.5 µg/mL (≈ 3 µM)
[7]; [13]
  MIC: 0.5 µg/mL (≈ 0.6 µM)
[8]; [14]
  MIC: 0.5 µg/mL (≈ 0.6 µM)
[9]; [15]
  MIC: 2.5 µg/mL (≈ 3 µM)

## CC[C@H]1OC(=O)[C@H](C)[C@@H](O[C@H]2C[C@@](C)(OC)[C@@H](OC(C)=O)[C@H](C)O2)[C@H](C)[C@@H](O[C@@H]2O[C@H](C)C[C@H](N(C)C)[C@H]2OC(C)=O)[C@](C)(O)C[C@@H](C)CN(C)[C@H](C)[C@@H](OC(C)=O)[C@]1(C)O [Example 4, 2',4"-13-triacetyl-N-methyl-11-aza-10-deoxo-10-dihydro erythromycin A]
[5]
  antibacterial activity in words: did not exhibit any satisfactory activity

## CCC(=O)O[C@H]1[C@H](O[C@@H]2[C@@H](C)[C@H](O[C@H]3C[C@@](C)(OC)[C@@H](O)[C@H](C)O3)[C@@H](C)C(=O)O[C@H](CC)[C@@](C)(O)[C@H](O)[C@@H](C)N(C)C[C@H](C)C[C@@]2(C)O)O[C@H](C)C[C@@H]1N(C)C [Example 5, 2'-propionyl-N-methyl-11-aza-10-dihydro erythromycin A]
[2]
  MIC: 0.5 µg/mL (≈ 0.621 µM)
[3]; [10]
  MIC: 0.05 µg/mL (≈ 0.0621 µM)
[4]; [11]
  MIC: 0.05 µg/mL (≈ 0.0621 µM)
[6]; [12]
  MIC: 0.05 µg/mL (≈ 0.0621 µM)
[7]; [13]
  MIC: 0.05 µg/mL (≈ 0.0621 µM)
[8]; [14]
  MIC: 0.1 µg/mL (≈ 0.124 µM)
[9]; [15]
  MIC: 0.5 µg/mL (≈ 0.621 µM)

## CCC(=O)O[C@H]1[C@H](O[C@@H]2[C@@H](C)[C@H](O[C@H]3C[C@@](C)(OC)[C@@H](OC(=O)CC)[C@H](C)O3)[C@@H](C)C(=O)O[C@H](CC)[C@@](C)(O)[C@H](O)[C@@H](C)N(C)C[C@H](C)C[C@@]2(C)O)O[C@H](C)C[C@@H]1N(C)C [Example 6, 2',4"-dipropionyl-N-methyl-11-aza-10-deoxo-10-dihydro erythromycin]
[2]
  MIC: 0.5 µg/mL (≈ 0.581 µM)
[3]; [10]
  MIC: 0.05 µg/mL (≈ 0.0581 µM)
[4]; [11]
  MIC: 0.5 µg/mL (≈ 0.581 µM)
[6]; [12]
  MIC: 0.1 µg/mL (≈ 0.116 µM)
[7]; [13]
  MIC: 0.1 µg/mL (≈ 0.116 µM)
[8]; [14]
  MIC: 0.5 µg/mL (≈ 0.581 µM)
[9]; [15]
  MIC: 0.1 µg/mL (≈ 0.116 µM)

## CC[C@H]1OC(=O)[C@H](C)[C@@H](O[C@H]2C[C@@](C)(OC)[C@@H](O)[C@H](C)O2)[C@H](C)[C@@H](O[C@@H]2O[C@H](C)C[C@H](N(C)C)[C@H]2O)[C@](C)(O)C[C@@H](C)CN(C)[C@H](C)[C@H]2OC(=O)O[C@@]21C [Example 7, N-methyl-11-aza-10-deoxo-10-dihydro erythromycin A 13,14-cyclic carbonate]
[2]
  MIC: 0.1 µg/mL (≈ 0.129 µM)
[3]; [10]
  MIC: 0.1 µg/mL (≈ 0.129 µM)
[4]; [11]
  MIC: 0.1 µg/mL (≈ 0.129 µM)
[6]; [12]
  MIC: 0.5 µg/mL (≈ 0.645 µM)
[7]; [13]
  MIC: 0.05 µg/mL (≈ 0.0645 µM)
[8]; [14]
  MIC: 0.1 µg/mL (≈ 0.129 µM)
[9]; [15]
  MIC: 0.1 µg/mL (≈ 0.129 µM)

## CC[C@H]1OC(=O)[C@H](C)[C@@H](O[C@H]2C[C@@](C)(OC)[C@@H](O)[C@H](C)O2)[C@H](C)[C@@H](O[C@@H]2O[C@H](C)C[C@H](N(C)C)[C@H]2OC(C)=O)[C@](C)(O)C[C@@H](C)CN(C)[C@H](C)[C@H]2OC(=O)O[C@@]21C [Example 8, 2'-acetyl-N-methyl-11-aza-10-deoxo-10-dihydro erythromycin A 13,14-cyclic carbonate]
[2]
  MIC: 0.1 µg/mL (≈ 0.122 µM)
[3]; [10]
  MIC: 0.05 µg/mL (≈ 0.0612 µM)
[4]; [11]
  MIC: 0.1 µg/mL (≈ 0.122 µM)
[6]; [12]
  MIC: 0.5 µg/mL (≈ 0.612 µM)
[7]; [13]
  MIC: 0.05 µg/mL (≈ 0.0612 µM)
[8]; [14]
  MIC: 0.1 µg/mL (≈ 0.122 µM)
[9]; [15]
  MIC: 0.1 µg/mL (≈ 0.122 µM)

## CC[C@H]1OC(=O)[C@H](C)[C@@H](O[C@H]2C[C@@](C)(OC)[C@@H](OC(C)=O)[C@H](C)O2)[C@H](C)[C@@H](O[C@@H]2O[C@H](C)C[C@H](N(C)C)[C@H]2OC(C)=O)[C@](C)(O)C[C@@H](C)CN(C)[C@H](C)[C@H]2OC(=O)O[C@@]21C [Example 9, 2',4"-diacetyl-N-methyl-11-aza-10-deoxo-10-dihydro erythromycin A 13,14-cyclic carbonate]
[2]
  MIC: 2.5 µg/mL (≈ 2.91 µM)
[3]; [10]
  MIC: 0.1 µg/mL (≈ 0.116 µM)
[4]; [11]
  MIC: 1 µg/mL (≈ 1.16 µM)
[6]; [12]
  MIC: 2.5 µg/mL (≈ 2.91 µM)
[7]; [13]
  MIC: 0.5 µg/mL (≈ 0.582 µM)
[8]; [14]
  MIC: 2.5 µg/mL (≈ 2.91 µM)
[9]; [15]
  MIC: 2.5 µg/mL (≈ 2.91 µM)

## CCC(=O)O[C@H]1[C@H](O[C@@H]2[C@@H](C)[C@H](O[C@H]3C[C@@](C)(OC)[C@@H](O)[C@H](C)O3)[C@@H](C)C(=O)O[C@H](CC)[C@@]3(C)OC(=O)O[C@@H]3[C@@H](C)N(C)C[C@H](C)C[C@@]2(C)O)O[C@H](C)C[C@@H]1N(C)C [Example 10, 2'-propionyl-N-methyl-11-aza-10-deoxo-10-dihydro erythromycin A 13,14-cyclic carbonate]
[2]
  MIC: 0.5 µg/mL (≈ 0.602 µM)
[3]; [10]
  MIC: 0.05 µg/mL (≈ 0.0602 µM)
[4]; [11]
  MIC: 0.5 µg/mL (≈ 0.602 µM)
[6]; [12]
  MIC: 0.5 µg/mL (≈ 0.602 µM)
[7]; [13]
  MIC: 0.1 µg/mL (≈ 0.12 µM)
[8]; [14]
  MIC: 0.5 µg/mL (≈ 0.602 µM)
[9]; [15]
  MIC: 1 µg/mL (≈ 1.2 µM)

## CCC(=O)O[C@H]1[C@H](O[C@@H]2[C@@H](C)[C@H](O[C@H]3C[C@@](C)(OC)[C@@H](OC(=O)CC)[C@H](C)O3)[C@@H](C)C(=O)O[C@H](CC)[C@@]3(C)OC(=O)O[C@@H]3[C@@H](C)N(C)C[C@H](C)C[C@@]2(C)O)O[C@H](C)C[C@@H]1N(C)C [Example 11, 2',4"-dipropionyl-N-methyl-11-aza-10-deoxo-10-dihydro erythromycin A 13,14-cyclic carbonate]
[2]
  MIC: 1 µg/mL (≈ 1.13 µM)
[3]; [10]
  MIC: 0.05 µg/mL (≈ 0.0564 µM)
[4]; [11]
  MIC: 0.5 µg/mL (≈ 0.564 µM)
[6]; [12]
  MIC: 2.5 µg/mL (≈ 2.82 µM)
[7]; [13]
  MIC: 0.1 µg/mL (≈ 0.113 µM)
[8]; [14]
  MIC: 2.5 µg/mL (≈ 2.82 µM)
[9]; [15]
  MIC: 1 µg/mL (≈ 1.13 µM)

## CC[C@H]1OC(=O)[C@H](C)[C@@H](O[C@H]2C[C@@](C)(OC)[C@@H](O)[C@H](C)O2)[C@H](C)[C@@H](O[C@@H]2O[C@H](C)C[C@H](N(C)C)[C@H]2O)[C@](C)(O)C[C@@H](C)CN[C@H](C)[C@@H](O)[C@]1(C)O [Standard, 11-aza-10-deoxo-10-dihydro erythromycin A, reference compound]
[2]
  MIC: 0.5 µg/mL (≈ 0.68 µM)
[3]; [10]
  MIC: 0.05 µg/mL (≈ 0.068 µM)
[4]; [11]
  MIC: 0.05 µg/mL (≈ 0.068 µM)
[6]; [12]
  MIC: 0.5 µg/mL (≈ 0.68 µM)
[7]; [13]
  MIC: 0.05 µg/mL (≈ 0.068 µM)
[8]; [14]
  MIC: 0.5 µg/mL (≈ 0.68 µM)
[9]; [15]
  MIC: 0.5 µg/mL (≈ 0.68 µM)
